Reference: patent US11382882B2 (priority 2010, dated 2022)
“Also recorded” adds a separate entry of the source.

What was measured:
MRSA strain USA300 = experiment: microbe, parasite or virus in culture; conditions: Staphylococcus aureus, 6 h; for hemolysis at 1 µg/mL: read-out: ELISA α-hemolysin inhibition 1 μg/mL; for hemolysis at 10 µg/mL: read-out: ELISA α-hemolysin inhibition 10 μg/mL
[1] = tested on: α-hemolysin gene expression; format: cell-based, Staphylococcus aureus
[2] = tested on: phenol-soluble modulin-a (psma) gene expression; experiment: phenol-soluble modulin-a (psma) gene expression in MRSA strain USA300 (FIG. 4); format: cell-based, Staphylococcus aureus
AgrA gene expression = AgrA gene expression in MRSA strain USA300 (FIG. 5); format: cell-based, Staphylococcus aureus
AgrC gene expression = AgrC gene expression in MRSA strain USA300 (FIG. 6); format: cell-based, Staphylococcus aureus
RNAIII gene expression = RNAIII gene expression in MRSA strain USA300 (FIG. 7); format: cell-based, Staphylococcus aureus
hla transcription = hla transcription by qRT-PCR (FIG. 9A); conditions: 6 h, versus DMSO; for transcription of hla (qRT-PCR, in words): 10 and 50 μg/ml, 37° C.
Experimental: (§1) The effect of the compounds VII, X, XII, and XV on the transcription of hla and RNAIII was measured by qRT-PCR. S. aureus USA300 was incubated at 37° C. for 6 h in the presence of 0, 10, or 50 μg/ml of the compounds. The cultures were harvested, and total RNA was isolated using the RiboPure—bacterial RNA isolation kit (Ambion) with additional DNase I treatment. RNA yield and purity were assessed by measuring the ratio of UV absorbance at 260 and 280 nm, and the integrity of the RNA was assessed on a 1% denaturing agarose gel. High integrity RNA had two clear bands without smearing, indicating no fragmentation of 23S and 16S rRNA.
(§2) Real-time RT-PCR reactions were conducted using a SYBR—green mix (Bio-Rad). The data were analyzed using the ΔΔC2 and are represented as log2 of the treated sample/control sample (DMSO only).

RNAIII transcription = RNAIII transcription by qRT-PCR (FIG. 9B); conditions: 10 or 50 μg/ml; 37° C., 6 h; versus DMSO
Experimental: as §1, §2

Experimental for Streptococcus pyogenes: During the first phase of in vitro testing the concentration of the compounds was kept constant at 100 mg/L in 2% DMSO.

O=C(O)c1c(F)c(F)cc2ccccc12 [III]
hemolysis at 1 µg/mL (MRSA strain USA300): 20.8 ± 3.5% | hemolysis at 10 µg/mL (MRSA strain USA300): 28.3 ± 3.4%

O=C(O)c1c(O)c(O)cc2ccccc12 [II]
α-hemolysin gene expression [1]: inhibit | phenol-soluble modulin-a (psma) gene expression [2]: inhibit | AgrA gene expression (AgrA gene expression): inhibit | AgrC gene expression (AgrC gene expression): inhibit | RNAIII gene expression (RNAIII gene expression): inhibit | rabbit blood hemolysis inhibition in Streptococcus pyogenes (in words) (Streptococcus pyogenes): active | hemolysis at 1 µg/mL (MRSA strain USA300): 21.3 ± 5.2% | hemolysis at 10 µg/mL (MRSA strain USA300): 76 ± 1.2%

O=C(/C=C/c1ccc2c(c1)OCO2)c1ccccc(=O)c1O [IV]
hemolysis at 1 µg/mL (MRSA strain USA300): 40.2 ± 5.2% | hemolysis at 10 µg/mL (MRSA strain USA300): 73.6 ± 2.2%

COc1cc(O)c(C(=O)c2ccccc2)cc1S(=O)(=O)O [IX]
rabbit blood hemolysis inhibition in Streptococcus pyogenes (in words) (Streptococcus pyogenes): active | hemolysis at 10 µg/mL (MRSA strain USA300): 41.9 ± 8.2%

O=C1Nc2cccc3cc(O)cc1c23 [I]
hemolysis at 1 µg/mL (MRSA strain USA300): 28 ± 4.4% | hemolysis at 10 µg/mL (MRSA strain USA300): 65 ± 2.5%

O=C(O)c1ccc2cc(F)ccc2c1 [VIII]
hemolysis at 10 µg/mL (MRSA strain USA300): 56.3 ± 1.7%

O=C(O)c1ccc(-c2ccc(O)c(F)c2)cc1 [VII]
α-hemolysin gene expression [1]: inhibit | phenol-soluble modulin-a (psma) gene expression [2]: inhibit | AgrA gene expression (AgrA gene expression): inhibit | AgrC gene expression (AgrC gene expression): inhibit | RNAIII gene expression (RNAIII gene expression): inhibit | rabbit blood hemolysis inhibition in Streptococcus pyogenes (in words) (Streptococcus pyogenes): active | hemolysis at 1 µg/mL (MRSA strain USA300): 31.3 ± 9% | hemolysis at 10 µg/mL (MRSA strain USA300): 61 ± 14.8% | transcription of hla (qRT-PCR, in words) (hla transcription): reduced

CCc1cc(C(=O)COc2ccccc2)c(O)cc1O [VI]
α-hemolysin gene expression [1]: inhibit | AgrA gene expression (AgrA gene expression): inhibit | rabbit blood hemolysis inhibition in Streptococcus pyogenes (in words) (Streptococcus pyogenes): active | hemolysis at 1 µg/mL (MRSA strain USA300): 55.2 ± 5.8% | hemolysis at 10 µg/mL (MRSA strain USA300): 76.3 ± 11.2%

COc1cc(C(=O)N/N=C/c2cccc3ccccc23)ccc1O [V]
α-hemolysin gene expression [1]: inhibit | phenol-soluble modulin-a (psma) gene expression [2]: inhibit | AgrA gene expression (AgrA gene expression): inhibit | AgrC gene expression (AgrC gene expression): inhibit | RNAIII gene expression (RNAIII gene expression): inhibit | rabbit blood hemolysis inhibition in Streptococcus pyogenes (in words) (Streptococcus pyogenes): active | hemolysis at 1 µg/mL (MRSA strain USA300): 23 ± 1.3% | hemolysis at 10 µg/mL (MRSA strain USA300): 88.4 ± 1.5%

O=C(O)c1cc(-c2ccc(F)cc2F)ccc1O [X, diflunisal, reference compound]
α-hemolysin gene expression [1]: inhibit | phenol-soluble modulin-a (psma) gene expression [2]: inhibit | AgrA gene expression (AgrA gene expression): inhibit | AgrC gene expression (AgrC gene expression): inhibit | RNAIII gene expression (RNAIII gene expression): inhibit | rabbit blood hemolysis inhibition in Streptococcus pyogenes (in words) (Streptococcus pyogenes): active | hemolysis at 1 µg/mL (MRSA strain USA300): 33 ± 3.6% | hemolysis at 10 µg/mL (MRSA strain USA300): 62.3 ± 1.8% | reduction of hla expression (hla transcription; 50 μg/mL): ~3000 fold | transcription of hla (qRT-PCR, in words) (hla transcription): reduced | RNAIII expression (qRT-PCR, in words) (RNAIII transcription): significant reduction; also recorded: reduced

O=C(O)c1cc(-c2cccc(F)c2)ccc1O [XIII]
hemolysis at 10 µg/mL (MRSA strain USA300): 35.6 ± 12.5%

O=C(O)c1ccc(Oc2ccc(F)cc2)cc1 [XII]
hemolysis at 10 µg/mL (MRSA strain USA300): 29.1 ± 11% | transcription of hla (qRT-PCR, in words) (hla transcription): reduced

O=C(c1ccccc1)c1ccc(O)cc1O [XIV]
hemolysis at 10 µg/mL (MRSA strain USA300): 26.7%

O=C(O)c1ccc(Oc2ccc(Cl)cc2)cc1 [XI]
hemolysis at 10 µg/mL (MRSA strain USA300): 36.3 ± 8.2%

O=C(O)c1ccc(-c2ccc(F)cc2)cc1 [XVI]
α-hemolysin gene expression [1]: inhibit | phenol-soluble modulin-a (psma) gene expression [2]: inhibit | AgrA gene expression (AgrA gene expression): inhibit | AgrC gene expression (AgrC gene expression): inhibit | RNAIII gene expression (RNAIII gene expression): inhibit | rabbit blood hemolysis inhibition in Streptococcus pyogenes (in words) (Streptococcus pyogenes): active | hemolysis at 1 µg/mL (MRSA strain USA300): 0% | hemolysis at 10 µg/mL (MRSA strain USA300): 68.8 ± 11.3% | transcription of hla (qRT-PCR, in words) (hla transcription): reduced

O=C(O)c1cccc(-c2ccccc2)c1O [XV]
α-hemolysin gene expression [1]: inhibit | phenol-soluble modulin-a (psma) gene expression [2]: inhibit | AgrA gene expression (AgrA gene expression): inhibit | AgrC gene expression (AgrC gene expression): inhibit | RNAIII gene expression (RNAIII gene expression): inhibit | rabbit blood hemolysis inhibition in Streptococcus pyogenes (in words) (Streptococcus pyogenes): active | hemolysis at 1 µg/mL (MRSA strain USA300): 49.4 ± 4.6% | hemolysis at 10 µg/mL (MRSA strain USA300): 53 ± 5.9%
